Laboratory results taken from patent US20250288572A1, “COMPOSITIONS AND METHODS FOR TREATING PULMONARY VASCULAR DISEASE” (UNIVERSITY OF PITTSBURGH-OF THE COMMONWEALTH SYSTEM OF …, priority 2022, published 2025).
Entries after “also recorded” stand apart in the source; their conditions may differ. Where a SMILES comes first, the peptide text is derived from it. The star is where a group is joined. Cbz = O=C(OCc1ccccc1)*

Experiments:
[1] = system: rats with PAH due to monocrotaline exposure; experiment: Monocrotaline PAH rats, glutaminase inhibitors daily i.p. Days 7-21 (Example 2); type: in vivo; conditions: MCT rats; for Fulton index / right ventricular systolic pressure (RVSP): 10 mg/kg daily i.p. Days 7-21, vs vehicle control
Experimental: In rats with PAH due to monocrotaline exposure, daily i.p, delivery of CB-839 (10 mg/kg) vs. UPGL00064 (10 mg/kg) vs. vehicle control was performed from Days 7-21 post-monocrotaline exposure. […] Error bars represent ±SEM. […] In rats with PAH due to monocrotaline exposure, daily i.p. delivery of CB-839 (10 mg/kg) vs. UPGL000064 (10 mg/kg) vs. vehicle control was performed from Days 7-21 post-monocrotaline exposure. […] Error bars represent ±SEM.

[2] = system: ISCU; experiment: Protein stability assay (proteasome inhibitor MG132) in hypoxic PAECs; type: cell-based, human; design: dose or concentration left out as unconfirmed; conditions: MG132 (2 h)
Experimental: Protein stability assay: The proteasome inhibitor MG132 (M7449, Sigma) was stored at −20° C. at a concentration of 10 mM diluted in dimethyl sulfoxide (DMSO). PAECs were exposed to MG132 ([…]) vs. DMSO vehicle control for 2 hr under hypoxia, prior to harvesting of cellular lysate for immunoblotting.
(§1) Immunoblot and densitometry: Cells were lysed in RIPA buffer (Sigma) along with 1× protease inhibitor cocktail (Sigma). Protein lysate was resolved by gradient 4%-15% SDS-PAGE gels and transferred onto a 0.2 μm PVDF membrane (Bio-Rad). Membranes were blocked in 5% non-fat milk in 1×PBST buffer for one hour at room temperature. Later, they were incubated in the presence of the primary antibody overnight at 4° C., and then appropriate HRP-conjugated secondary antibodies (Life Technologies). The following antibodies were used: human LGALS8 (AF1305, RnD Systems), mouse/rat Lgals8 ([…], Abcam), pSTAT1 (ab29045, Abcam) and STAT1 (ab47425, Abcam), GSTP1 (ab153949, Abcam), ISCU (14812-1-AP, Pointech), Glutathione (ab19534, Abcam), HIF2A (NB100-122, Novous), α-Tubulin (CP06, Millipore sigma), and ACTB (sc-47778, Santa Cruz). The immunoreactive bands were visualized with the Chemidoc XRS+ system (Bio-Rad) using SuperSignal West Femto chemiluminescent substrates (Thermo Fisher Scientific). The images were later quantified using AlphaEaseFC software (Alpha Innotech).

[3] = system: PAECs; experiment: Cellular apoptosis, caspase-3/7 activity (Caspase-Glo 3/7) in PAECs; type: cell-based, human; conditions: PAECs
Experimental: (§2) The hypoxia chamber (modular incubator chamber) was obtained from Billups-Rothenberg Inc. (Del Mar, Cali) and placed in regulated CO2 incubator at 37° C.
Cellular apoptosis: Caspase-3/7 activity was quantified using the Caspase-Glo 3/7 Assay (Promega), according to manufacturer's instructions. Caspase-3/7 activity was normalized to total protein content determined by BCA method (Thermo Fisher Scientific).

[4] = system: PAECs; experiment: RT-qPCR gene expression in PAECs; type: cell-based, human; conditions: for expression of Cluster 15 members (SLC9A3R1, LGALS3): IL-1β-induced expression changes
Experimental: as §2
RT-qPCR analysis: Cells were lysis in 1 ml of QiaZol reagent (Qiagen). Total RNA content was extracted using the RNeasy kit (Qiagen), according to the manufacturer's instructions. Total RNA concentration was determined using a BioTek Synergy multimode plate reader. Messenger RNAs were reverse transcribed to generate cDNA using the Multiscript RT kit (Thermo Fisher Scientific). cDNA for specific gene targets was amplified and quantified via fluorescently-labeled Taqman primer sets and Taqman fast advanced master mix (Thermo Fisher Scientific) using an Applied Biosystems QuantStudio 6 Flex Real-Time PCR System.

[5] = system: LGALS8; experiment: Immunoblot and densitometry of LGALS8 isoforms in PAECs; type: cell-based, human; conditions: IL-1β, listed as I-BET
Experimental: as §1

[6] = system: SU5416-hypoxic pulmonary arterial hypertension rats; experiment: SU5416-hypoxia pulmonary arterial hypertension rat model, disease-reversal dosing; type: in vivo, Sprague-Dawley rats; conditions: SU5416-hypoxia rats
Experimental: Briefly, 10 week old male Sprague-Dawley rats were injected i.p. with 20 mg/kg of SU5416 (Sigma), placed in normobaric hypoxia (10% 02) for 3 weeks and then transferred to normoxia for 2 weeks. During hypoxic exposure, chambers were opened twice a week for cleaning and replenishment of food and water. […] For BRD2889 vs. vehicle control dosing, i.p. injections every 5 days (5 mg/kg) were administered during the final two weeks of normoxia. Oxygen concentrations were continuously monitored with blood gas analyzers.
Measurement of GST activity: The GST activity from lung tissue and PAECs was assayed using GST assay kit (Cayman, MI, USA) per the manufacturer's instructions.
Rodent echocardiography: Echocardiography was performed using a 15-45M Hz transthoracic transducer and a Visual Sonics Vevo 3100 system (Fujifilm). Inhaled isoflurane anesthesia was used at 2% in 100% 02 during positioning and hair removal and then decreased to isoflurane 0.8% during imaging.

[7] = system: hypoxia-induced pulmonary hypertension mice; experiment: Hypoxia-induced (Group 3) pulmonary hypertension mouse model
Description: Animal models: For the hypoxia-induced pulmonary hypertension mice, male C57BL/6J mice (8 weeks old) (RRID:IMSR_JAX:000664) were purchased from Jackson laboratory and acclimatized for 3-4 days in this facility. Subsequently, mice scheduled for normoxic vs. hypoxic exposure were maintained in either normoxia or a normobaric hypoxia chamber for 1 or 3 weeks (OxyCycler, Biospherix Ltd.), where consistent exposure to 10% oxygen and control for temperature and humidity were possible.
I-BET was dissolved in DMSO at 100× concentration and then made into a working solution in 20% PEG400 and 80% 1×PBS.
Male and female 8 week old Lgals8−/− mice were exposed to hypoxia for 3 weeks. Littermates were used as wildtype (WT) control when comparing with knockout mice.
Immunofluorescent staining: Cryostat sections were cut from OCT-embedded lung tissues at 5-10 μm and mounted on gelatin-coated histological slides. Slides were thawed at room temperature for 10-20 min and rehydrated in wash buffer for 10 minutes. All sections were blocked in 10% donkey scrum and exposed to primary antibody and Alexa 488, 568 and 647-conjugated secondary antibodies (Thermo Fisher Scientific). The following primary antibodies were used: Lgals8 (Ab69631, Abcam; 1/2200), IL-1 (ab9722, Abcam; 1%200), GSTP1 (ab153949, Abcam; 1:100), ISCU (14812-1-AP, Proteintech; 1:100), cleaved caspase 3 (cs-9661, Cell Signaling; 1/400), α-SMA (F3777, Sigma; I/200) and CD31 (ab7388, Abcam: 1/200). Images were obtained using Nikon A1 confocal microscope with 40× objective. Small pulmonary vessels (10 vessels/section) that were not associated with bronchial airways were selected for analysis. Intensity of staining was quantified using ImageJ software (NIH). Degree of pulmonary arteriolar muscularization was assessed in OCT lung sections stained for α-SMA by calculation of the proportion of fully and partially muscularized peripheral (<100 μm diameter) pulmonary arteriole to total peripheral pulmonary arterioles (Bertero T et al. J Clin Invest. 2014, 124, 3514-3528).

[8] = system: PAECs; experiment: Flow cytometry detection of mitochondrial superoxide (MitoSOX Red) in PAECs
Experimental: To assess the effect of I-BET under inflammatory conditions, cells were treated with recombinant human IL-1β (10 ng/ml, Peprotech) at about 70-80% confluency for 48 h in complete media along with vehicle control (DMSO, Sigma-41639), I-BET151 (500 nM), 1-BET762 (500 nM) (Selleckchem-S2780/S7189), as indicated.
For hypoxia exposure, cells were plated in 6-well cell culture plates at 1×10^5 cells/well, grown for 24 hr and placed into a normobaric hypoxia chamber (1%02) for 24 h under specific treatment conditions. Namely, for I-BET and siLGALS8 exposures, cells were either pre-treated with I-BET/vehicle control (VC) or transfected with siLgals8/Scr for 24 h. Then, they were cultured in basal media at 1% 02. After 24 h, caspase activity and mitochondrial superoxide levels were quantified. To detect activation status of pSTAT1/STAT1 by immunoblot, cells were exposed to 8 h of hypoxia.
Flow cytometry detection of mitochondria superoxide: For measuring mitochondrial superoxide, cells were incubated with 5 μM of MitoSOX Red mitochondrial superoxide indicator (Thermo Fisher Scientific) for 10 min in 37° C.

[9] = IL-1β 10 ng/ml 48 h, 500 nM vs vehicle control
[10] = IL-1β 10 ng/ml 48 h, 500 nM vs vehicle control, listed as I-BET
[11] = I-BET762 30 mg/kg daily i.p. or BRD2889 5 mg/kg i.p. every 5 days, final 2 weeks
[12] = hypoxic mice, I-BET762 30 mg/kg daily oral
[13] = IL-1β 48 h, I-BET plus rhGal8 24 h (30 nM)

Molecule: O=C(Cc1cccc(OC(F)(F)F)c1)Nc1ccc(CCCCc2nnc(NC(=O)Cc3ccccn3)s2)nn1 [CB-839, reference compound]
- Fulton index [1]: significantly decreased
- right ventricular systolic pressure (RVSP) [1]: significantly decreased

Molecule: O=C(Cc1ccccc1)Nc1nnc(NC2CCN(c3nnc(NC(=O)CC4CC4)s3)CC2)s1 [UPGL00064]
- Fulton index, compared with CB-839 ([1]; 10 mg/kg daily i.p. Days 7-21): more robust trend toward lower Fulton index
- RVSP, compared with CB-839 ([1]; 10 mg/kg daily i.p. Days 7-21): more robust trend toward lower RVSP
- Fulton index [1]: significantly decreased
- right ventricular systolic pressure (RVSP) [1]: significantly decreased

Molecule: CC(C)C[C@@H](C=O)NC(=O)[C@H](CC(C)C)NC(=O)[C@H](CC(C)C)NC(=O)OCc1ccccc1 [MG132] (Cbz-Leu-Leu-Leu-aldehyde)
- GSTP1 and ISCU glutathionylation [2]: without affecting GSTP1 or glutathionylation
- ISCU protein [2]: reversed the hypoxic down-regulation of ISCU; also recorded: reversed the hypoxia-induced reduction of ISCU

Molecule: CCNC(=O)C[C@@H]1N=C(c2ccc(Cl)cc2)c2cc(OC)ccc2-n2c(C)nnc21 [I-BET762]
- apoptosis, caspase-3/7 activity [3, 9]: reversed the IL-1β-induced increases
- apoptosis, caspase-3/7 activity [3, 10]: reduced the IL-1β-dependent increase
- apoptosis, caspase-3/7 activity ([3]; hypoxia 24 h, I-BET vs vehicle control): reversed the hypoxia-induced increases
- LGALS8-L transcript ([4]; IL-1β): reversed the alterations
- expression of C15 genes LGALS3, LGALS8, DAG1, SLC9A3R1 (extent of reversal) ([4]; IL-1β): near complete reversal
- expression of CD47, ABCC4 and DAG1 ([4]; IL-1β): all rescued
- expression of Cluster 15 (C15) gene galectin-8 (LGALS8) ([4]; IL-1β): reversed the IL-1β-induced increases
- LGALS8-L transcript ([4]; IL-1β, listed as I-BET): reversed by I-BET
- LGALS8-M transcript ([4]; IL-1β, listed as I-BET): not altered by I-BET
- expression of Cluster 15 members (SLC9A3R1, LGALS3) [4]: reversed
- LGALS8-L protein (immunoblot densitometry) [5]: followed its mRNA expression; also recorded: reversed the IL-1β-induced increase
- LGALS8-M protein (immunoblot densitometry) [5]: no significant difference
- LGALS8 in pulmonary arterioles (immunofluorescence) ([6]; I-BET762 30 mg/kg daily i.p. Days 21-35): decreased
- arteriolar muscularization (α-SMA) [6, 11]: reduced
- cleaved caspase-3 (CC-3), endothelial apoptosis [6, 11]: reduced downstream apoptosis; also recorded: decreased
- right ventricular systolic pressure (RVSP) [6, 11]: reduced
- cleaved caspase-3 (apoptosis) [7, 12]: reduced downstream apoptosis; also recorded: reversed the 3 week hypoxia-dependent increases
- heart rate [7, 12]: without significant effect
- pulmonary vascular LGALS8 expression [7, 12]: robustly decreased; also recorded: reversed the 3 week hypoxia-dependent increases
- pulmonary vascular muscularization (α-SMA) [7, 12]: reduced; also recorded: reversed the 3 week hypoxia-dependent increases
- right ventricular systolic pressure (RVSP) [7, 12]: reduced; also recorded: reversed the 3 week hypoxia-dependent increases
- LGALS8 ([7]; normoxic mice, similar dosing, mean±SEM, vehicle control 1±0.02, p=NS): 1.08±0.03 fold change
- mitochondrial superoxide (O2−) levels, MitoSOX Red [8, 9]: reversed the IL-1β-induced increases; also recorded: reversed by I-BET762
- mitochondrial superoxide (O2−) levels, MitoSOX Red [8, 10]: reduced the IL-1β-dependent increase
- mitochondrial superoxide (O2−) levels, MitoSOX Red ([8]; hypoxia 24 h, vs vehicle control): reversed the hypoxia-induced increases

Molecule: COc1cc2c(cc1-c1c(C)noc1C)ncc1[nH]c(=O)n([C@H](C)c3ccccn3)c12 [I-BET151]
- expression of Cluster 15 members (SLC9A3R1, LGALS3) [4]: reversed

B1: rhGal8: recombinant human LGALS8 (galectin-8), R&D Systems 1305-GA-050 (protein, UniProt O00214 1-317, looked up)
Galectin-8: MMLSLNNLQNIIYNPVIPFVGTIPDQLDPGTLIVIRGHVPSDADRFQVDLQNGSSMKPRADVAFHFNPRFKRAGCIVCNTLINEKWGREEITYDTPFKREKSFEIVIMVLKDKFQVAVNGKHTLLYGHRIGPEKIDTLGIYGKVNIHSIGFSFSSDLQSTQASSLELTEISRENVPKSGTPQLRLPFAARLNTPMGPGRTVVVKGEVNANAKSFNVDLLAGKSKDIALHLNPRLNIKAFVRNSFLQESWGEEERNITSFPFSPGMYFEMIIYCDVREFKVAVNGVHSLEYKHRFKELSSIDTLEINGDIHLLEVRSW
- caspase 3/7 activity (apoptosis): effect of rhGal8 on the I-BET-induced attenuation [3, 13]: reduced the ability of I-BET to decrease; also recorded: reversed the I-BET-induced attenuation
- apoptosis ([3]; rhGal8 alone): alone had no effect
- mitochondrial O2−: effect of rhGal8 on the I-BET-induced attenuation [8, 13]: reduced the ability of I-BET to decrease; also recorded: reversed the I-BET-induced attenuation; also recorded: attenuated
- mitochondrial superoxide ([8]; rhGal8 alone): alone had no effect
